From EP0414894A1 (priority 1989, dated 1990)
Where “and” joins values, the source holds several entries; their conditions need not be identical. Identical values can stand only once.

Legend:
Candida albicans [1] = test: fungicidal activity, laboratory test on Sabouraud medium; type: cell-based; conditions: 0.01% solution in water
Procedure: (§1) A fungicidal composition based on this compound was prepared, which was a 0.01% solution of the compound in water. […] For testing it the Petri dishes containing Sabourand growth medium were inoculated by using suspension of microorganisms containing 5x10⁷ cells of fungi in 1 ml.
(§2) The restricted surface areas (7 mm in diameter) were coated with the composition by means of a small metal spatula 4x4 mm in size. In a day of incubating it at 37°C in the thermostat the composition inhibited the growth of yeast-like fungi. An antifungal activity of the composition was specified according to the method of 10-fold serial dilution using Sabourand's liquid medium in 2 ml of which 2x10⁵ cells were introduced.

Candida albicans [2] = test: fungicidal activity, large-scale test on surfaces of articles; type: cell-based; conditions: 0.01% solution in water
Procedure: (§3) The large-scale tests were carried out by using Candida albicans and Candida tropicalis strains, with their 2-day agar culture being diluted with an isotonic sodium chloride solution up to the concentration of 5x10⁷ cells in 1 ml. The culture suspension was laid on the surface (7 mm in diameter) of articles made of ceramics, metal, wood and rubber as well as a cotton, flannel and woollen cloth which were presterilized.
(§4) In a day after incubation from the treated areas washings were taken with a cotton-gauze tampon which was moistened with Sabouraud's liquid medium, then they were immersed into the tubes containing a similar medium, and placed into thermostat at 37°C for 2 days. Thereafter, the inoculum was transfered onto a solified Sabouraud agar, and the values of growth were recorded according to a conventional procedure. The test data of the composition according to the invention over a known composition (zineb) and the control are given in Table 3.

Candida Tropi-calis [3] = test: fungicidal activity, laboratory test on Sabouraud medium; type: cell-based, Candida tropicalis; conditions: 0.01% solution in water
Procedure: as §1, §2

Candida Tropi-calis [4] = test: fungicidal activity, large-scale test on surfaces of articles; type: cell-based, Candida tropicalis; conditions: 0.01% solution in water
Procedure: as §3, §4

Hepatitis B virus = test: virulicidal activity, HBsAg titer in blood serum
From the text: table ratio instead of the test composition.

Meningopneumonia virus = test system: Meningopneumonia virus; parameters: species or system meningopneumonia pathogene/MP strain/
Influenza A viruses = test: virulicidal activity, virus titer in allantoic fluid by hemagglutination-inhibition
domestic flies [5] = test: insecticidal activity, laboratory test in gauze boxes; type: in vivo; conditions: 2% solution in 5% aqueous glucose; observed in 48-72 hours
Procedure: The compound obtained was used for preparing an insecticidal composition which was a 2% solution of the compound in a 5% aqueous solution of glucose. The test for activity of the insecticidal composition of the invention was conducted on domestic flies. Into gause 10x10 cm boxes /6 boxes/ 6-7-day flies were placed in the number of 50 individuals per box, which were of both sexes. The Petri dishes containing the insecticidal composition of the invention were put into 5 boxes. The observations for fly death were carried out in 48-72 hours. The Petri dish containing a 5% aqueous glucose solution were placed into a control box.

domestic flies [6] = test: insecticidal activity, full-scale (large-scale) test in premises; type: in vivo; conditions: 2% solution, 2-3 dishes per 20 m²; 72 hours
Procedure: The full-scale tests for activity of the insecticidal composition of the invention to domestic flies in habitable and industrial premises were carried out as follows. The Petri dishes containing a 2% solution of the insecticidal composition of the invention were located according 2-3-dishes per 20 m². The composition activity was evaluated by a direct estimation of killed insects in 72 hours or by using an adhesive tape to count the number of flies on its surface prior to and after conducting the test.

Escherichia coli = test: microbe, parasite or virus in culture; type: cell-based; conditions: Escherichia coli, read-out: Death of micro-organisms, % Escherichia coli
Staphylococcus aureus = test: microbe, parasite or virus in culture; type: cell-based; conditions: Staphylococcus aureus, read-out: Death of micro-organisms, % Staphylo-cocus aureus
[7] = mice and rats; cited from earlier work

**Q.** Which results are given for `CCOP(=NC(CCl)C(O)c1ccc([N+](=O)[O-])cc1)(OCC)OCC` (stereo not drawn) [Example 16, triethoxy-phosphazo-1-para-nitrophenyl-1-chloro-3-propanol]?
**A.** Growth inhibition of fungal colonies, % Candida albicans Laboratory tests (Candida albicans [1]): 100.0%; Growth inhibition of fungal colonies, % Candida albicans Large-scale tests (Candida albicans [2]): 100.0%; Growth inhibition of fungal colonies, % Candida Tropi-calis Laboratory tests (Candida Tropi-calis [3]): 100.0%; Growth inhibition of fungal colonies, % Candida Tropi-calis Large-scale tests (Candida Tropi-calis [4]): 100.0%; Virulicidal activity (%) under exposure 30 min (Hepatitis B virus; concentration 1.0 % by mass): 50.0%; Virulicidal activity (%) under exposure 60 min (Hepatitis B virus; concentration 1.0 % by mass): 75.0%; Virulicidal activity (%) under exposure 30 min (Hepatitis B virus; concentration 2.0 % by mass): 100,0%; Virulicidal activity (%) under exposure 60 min (Hepatitis B virus; concentration 2.0 % by mass): 100,0%; Virulicidal activity (%) under exposure 30 min (Meningopneumonia virus): 25.0% and 50.0%; Virulicidal activity (%) under exposure 60 min (Meningopneumonia virus): 50.0% and 99.0%; Virulicidal activity (%) under exposure 30 min (Influenza A viruses; concentration 1.0 % by mass): 50.0%; Virulicidal activity (%) under exposure 60 min (Influenza A viruses; concentration 1.0 % by mass): 75.0%; Virulicidal activity (%) under exposure 30 min (Influenza A viruses; concentration 2.0 % by mass): 98.4%; Virulicidal activity (%) under exposure 60 min (Influenza A viruses; concentration 2.0 % by mass): 100.0%

**Q.** With `CCOP(=NC(CCl)C(Cl)c1ccc([N+](=O)[O-])cc1)(OCC)OCC` (stereo not drawn) [Example 10, triethoxyphosphazo-1-para-nitrophenyl-1,3-dichloropropane] as the compound, how does the “Death of flies, % Tests in laboratory” value (domestic flies [5]) read?
**A.** The value was 89.9%.

**Q.** And the “Death of flies, % Tests in large-scale” value (domestic flies [6])?
**A.** The value was 88.0%.

**Q.** And the killing at 0.5 % (Escherichia coli)?
**A.** The killing at 0.5 % was 100%.

**Q.** What about the killing at 0.5 % (Staphylococcus aureus) of the same compound?
**A.** Its killing at 0.5 % is 99.8%.

**Q.** What about the “Growth inhibition of fungal colonies, % Candida albicans Laboratory tests” value (Candida albicans [1]) of the same compound?
**A.** The value was 100.0%.

**Q.** And the “Growth inhibition of fungal colonies, % Candida albicans Large-scale tests” value (Candida albicans [2])?
**A.** The value was 100.0%.

**Q.** What about the “Growth inhibition of fungal colonies, % Candida Tropi-calis Laboratory tests” value (Candida Tropi-calis [3]) of the same compound?
**A.** The value was 100.0%.

**Q.** What about the “Growth inhibition of fungal colonies, % Candida Tropi-calis Large-scale tests” value (Candida Tropi-calis [4]) of the same compound?
**A.** The value was 100.0%.

**Q.** For `COP(=O)(OC)C(O)C(Cl)(Cl)Cl` (stereo not drawn) [0,0-dimethyl/1-hydroxy-2,2,2,-trichloroethyl/-phosphonate, reference compound], which “Death of flies, % Tests in large-scale” value (domestic flies [6]) is on record?
**A.** The value was 88.0%.

**Q.** And the LD₅₀ [7]?
**A.** The LD₅₀ was 225 to 1200 mg/kg.

**Q.** Which results are given for `COP(=NC(CCl)C(Cl)c1ccc([N+](=O)[O-])cc1)(OC)OC` (stereo not drawn) [Example 9, trimethoxyphosphazo-1-para-nitrophenyl-1,3-dichloropropane]?
**A.** Death of flies, % Tests in laboratory (domestic flies [5]): 85.2%; Death of flies, % Tests in large-scale (domestic flies [6]): 83.0%; killing at 0.5 % (Escherichia coli): 100%; killing at 0.5 % (Staphylococcus aureus): 100%; Growth inhibition of fungal colonies, % Candida albicans Laboratory tests (Candida albicans [1]): 100.0%; Growth inhibition of fungal colonies, % Candida albicans Large-scale tests (Candida albicans [2]): 100.0%; Growth inhibition of fungal colonies, % Candida Tropi-calis Laboratory tests (Candida Tropi-calis [3]): 100.0%; Growth inhibition of fungal colonies, % Candida Tropi-calis Large-scale tests (Candida Tropi-calis [4]): 100.0%

**Q.** With `COP(=NC(CO)C(O)c1ccc([N+](=O)[O-])cc1)(OC)OC` (stereo not drawn) [Example 1, trimethoxyphosphazo-1-para-nitrophenyl-1,3-propandiol] as the compound, how does the “Death of flies, % Tests in laboratory” value (domestic flies [5]) read?
**A.** The value was 89.1%.

**Q.** What about the “Death of flies, % Tests in large-scale” value (domestic flies [6]) of the same compound?
**A.** The value was 87.0%.

**Q.** What about the “Growth inhibition of fungal colonies, % Candida albicans Laboratory tests” value (Candida albicans [1]) of the same compound?
**A.** The value was 100.0%.

**Q.** What about the “Growth inhibition of fungal colonies, % Candida albicans Large-scale tests” value (Candida albicans [2]) of the same compound?
**A.** The value was 100.0%.

**Q.** And the “Growth inhibition of fungal colonies, % Candida Tropi-calis Laboratory tests” value (Candida Tropi-calis [3])?
**A.** The value was 100.0%.

**Q.** And the “Growth inhibition of fungal colonies, % Candida Tropi-calis Large-scale tests” value (Candida Tropi-calis [4])?
**A.** Its value is 100.0%.

**Q.** Which “Growth inhibition of fungal colonies, % Candida albicans Laboratory tests” value (Candida albicans [1]) does the source give for `COP(=NC(CCl)C(O)c1ccc([N+](=O)[O-])cc1)(OC)OC` (stereo not drawn) [Example 15] here?
**A.** Its value is 100.0%.

**Q.** And the “Growth inhibition of fungal colonies, % Candida albicans Large-scale tests” value (Candida albicans [2])?
**A.** Its value is 100.0%.

**Q.** What about the “Growth inhibition of fungal colonies, % Candida Tropi-calis Laboratory tests” value (Candida Tropi-calis [3]) of the same compound?
**A.** Its value is 100.0%.

**Q.** What about the “Growth inhibition of fungal colonies, % Candida Tropi-calis Large-scale tests” value (Candida Tropi-calis [4]) of the same compound?
**A.** Its value is 100.0%.

**Q.** With `CCOP(=NC(CO)C(O)c1ccc([N+](=O)[O-])cc1)(OCC)OCC` (stereo not drawn) [Example 2, triethoxyphosphazo-1-para-nitrophenyl-1,3-propandiol] as the compound, how does the “Death of flies, % Tests in laboratory” value (domestic flies [5]) read?
**A.** The value was 84.7%.

**Q.** What about the “Death of flies, % Tests in large-scale” value (domestic flies [6]) of the same compound?
**A.** The value was 83.0%.

**Q.** What about the “Growth inhibition of fungal colonies, % Candida albicans Laboratory tests” value (Candida albicans [1]) of the same compound?
**A.** The value was 100.0%.

**Q.** What about the “Growth inhibition of fungal colonies, % Candida albicans Large-scale tests” value (Candida albicans [2]) of the same compound?
**A.** The value was 100.0%.

**Q.** And the “Growth inhibition of fungal colonies, % Candida Tropi-calis Laboratory tests” value (Candida Tropi-calis [3])?
**A.** Its value is 100.0%.

**Q.** And the “Growth inhibition of fungal colonies, % Candida Tropi-calis Large-scale tests” value (Candida Tropi-calis [4])?
**A.** The value was 100.0%.
